Consider 88 compounds from a melting point compilation (Tetko et al.; mined from patent text by program, amines drawn as free bases though some values may be those of a salt).

The structures appear in SMILES notation.

The compound `CCN(CC)c1ccc(C2(c3ccc(N(CC)CC)cc3N(CC)CC)OC(=O)c3c(Cl)c(Cl)c(Cl)c(Cl)c32)c(C)c1` (stereo not drawn) came in with a melting point of 162 to 164 °C. With `COC(=O)Nc1cn2cc(S(=O)c3ccccn3)ccc2n1` (stereo not drawn) the figure was 231 to 235 °C; with `Cc1c(C)c2c(c(C)c1NC(=O)CC(C)(C)C)C(O)C(C)(C)O2` (stereo not drawn), 204 to 206 °C; with `COC(=O)c1ccc(-c2ccc3nc(OC)ccc3c2)cc1`, 158 to 161 °C. Consider `O=S1(=O)N=C2CCCN2c2ccc(Oc3cccc(-c4ccco4)c3)cc21`, for which the melting point lay in the range of 186 to 189 °C.

For `CC(=O)n1c(=O)oc2c3ncccc3ccc21`, the melting point lay in the range of 192 to 193 °C.

In turn, `Cc1ccc(Sc2c(SCc3ccccc3)cc(C(=O)O)cc2S(=O)(=O)Cl)cc1` showed a melting point of 188 to 190 °C. With `CSc1ccc(C(=O)C=Cc2ccncc2)cc1` the figure was 133 to 134 °C; with `Nc1nc(O)c2cc(CCc3ccc(C(=O)N[C@@H](CCC(=O)O)C(=O)O)cc3)cnc2n1`, above 200 °C; with `Cc1ccc(-c2cc3c4cc(C)ccc4n(C)c3n(C)c2=O)c(C)c1`, 150 °C. As to `CCOC(=O)C(C(=O)OCC)c1cc(OC)ccc1[N+](=O)[O-]`, the melting point was in the range of 92 to 93 °C. `O=C1c2ccc(Cl)cc2CCc2c(O)cccc21` registered a melting point of 185 °C. With `COC(=O)c1ccc(N)c(C(=O)C(=O)OC(=O)C(=O)c2cc(C(=O)OC)ccc2N)c1` the figure was 256 to 257 °C; with `CC(C)c1cccc2c1C(=O)N(COC(=O)c1c(Cl)ccc(OCC(=O)O)c1Cl)S2(=O)=O`, 210 to 212 °C; with `N#CC1=C(C#N)Sc2nc3cc(C#N)ccc3nc2S1`, 218 to 220 °C. Compound `CCCNC(=O)C1CCCN1C(=O)OCc1ccccc1` (stereo not drawn) displayed a melting point of 74 to 75 °C. As for `COc1ccc(C(C#N)N(C)C(=O)C(Cl)Cl)cc1OC` (stereo not drawn), the figure is 102 °C; as for `CC(=O)Cc1cc2[nH]c(=O)oc2cc1Br`, 160 to 162 °C. The compound `COc1ccc(C(=O)Nc2ccccc2)cc1NS(=O)(=O)c1ccc(C#N)cc1` yielded a melting point of 206 to 208 °C. `CC(=O)Nc1cccc(OCC(O)CNCCOc2ccc(C(N)=O)cc2)c1` (stereo not drawn): the melting point fell in the range of 164 to 165 °C.

The compound `CC(C)Cc1ccc(C(C)C(=O)NCCN(O)C(N)=O)cc1` (stereo not drawn) came in with a melting point of 150 to 152 °C. As for `COc1ccc(C(=O)NCc2ccc3c(c2)C(=O)N(C2CCC(=O)NC2=O)C3=O)cc1` (stereo not drawn), the figure is 215 to 217 °C; as for `CCCC(=NOCC)C1=C(O)CC(c2ccc(C=O)cc2)CC1=O` (stereo not drawn), 81 to 82 °C.

The compound `COCc1oc(-c2nn(Cc3ccccc3F)c3ccccc23)nc1C` displayed a melting point of 86 to 88 °C. With `C[C@H]1COC(=O)N1c1nc(-c2ccc(C#N)cc2)cs1` the figure was 205 to 207 °C; with `COc1cc(C)nc2c(OC)cc(Br)cc12`, 167 to 168 °C. With `CN(C)c1nc(NCc2ccc(NC(=O)c3ccc(F)cc3)cc2)c2ccc(-c3ccccc3C=O)cc2n1` the figure was 128 °C; with `OC(Cn1cncn1)(c1ccc(Cl)cc1)C1(n2cncn2)CC1` (stereo not drawn), 208 °C; with `O=C(c1nccs1)c1cnn2c(-c3cccc(NC(=O)C4CC4)c3)ccnc12`, 226 to 229 °C.

As for `O=C(Nc1ccccc1)C1=Cc2ccccc2S1(=O)=O`, the melting point is above 220 °C.

For the compound `CC(C)(C)NC(=O)c1nn(-c2ccc([N+](=O)[O-])cc2)c2c1C1CCC2C1` (stereo not drawn), the melting point was in the range of 224 to 226 °C. As for `O=C(O)c1cnc(-c2nnn[nH]2)cc1-c1ccccc1`, the figure is above 300 °C. In the case of `COc1cc(CO)ccc1OCc1nc(N2CCOCC2)sc1C`, the melting point fell in the range of 121 to 122 °C. The compound `COc1cc2c(c(N3CCN(C)CC3)c1)OC(C(=O)Nc1ccc(N3CCN(C)CC3)cc1)CC2` (stereo not drawn) had a melting point of 180 to 190 °C. With `COc1ccc(C(=O)Cc2c(Cl)cncc2Cl)c2cc(C(=O)N3CCN(C)CC3)oc12` the figure was 160 to 161 °C. With `CS(=O)(=O)On1nnc2ccccc2c1=O` the figure was 132 to 134 °C. As for `CN1Cc2c(C(=O)OC(C)(C)C)ncn2-c2ccccc2C1=S`, the figure is 207 to 208 °C; as for `NC(=O)Oc1ccccc1-c1nc2cc(F)c(OCc3c(Cl)cccc3Cl)cc2s1`, 245 to 250 °C. Compound `Cc1cccc(C)c1CNc1cc(C2=NCCO2)cc2c1nc(C)n2C` came in with a melting point of 235 °C. As for `CC(C)(C)C(O)(COc1ccc(Cl)cc1)Cn1cncn1` (stereo not drawn), the figure is 57 °C; as for `CCc1nccn1-c1ccc(NC(=O)c2ccc(Cl)cc2)cc1`, 265 to 267 °C.

`C=CCOc1ccc2ccc(=O)oc2c1` returned a melting point of 165 °C. As for `CC(C)(C)C(=O)NCCC(=O)NC1CCCCC1Nc1cccc2c1C(=O)c1ccccc1C2=O` (stereo not drawn), the figure is 168 °C.

On to `O=c1[nH]c(=O)n(CCCN2CCC(OC(c3ccccc3)c3ccccc3)CC2)c2ccccc12`, for which the melting point fell in the range of 149 to 151 °C.

`CCNC(=O)c1c(Cl)cccc1[Si](C)(C)C(C)C` returned a melting point of 98 to 100 °C. As for `CN(C)C[C@@H]1C[C@H]1c1c[nH]c2ccc(C#N)cc12` (relative stereo), the figure is 120 to 121 °C.

As for `Cc1nnc2n1-c1sc(Cl)cc1C(c1ccccc1C(F)(F)F)=NC2`, the melting point is 193 to 195 °C.

`CCc1nc(-c2ccc(OCCCn3cnc4ccccc43)cc2)no1` registered a melting point of 100 to 101 °C.

Take `CCCc1nc2c(N)nc3cc(OCCCNC(=O)C(C)C)ccc3c2n1CC(C)C`: the melting point fell in the range of 179 to 181 °C. In the case of `CC(=O)Nc1ccc(Oc2c([N+](=O)[O-])cc(C(=O)O)cc2S(N)(=O)=O)cc1`, the melting point stood at 305 °C. With `Clc1ccc2c(C3=CCNCC3)c[nH]c2c1` the figure was 181 to 185 °C; with `Cc1cccc2nc3n(c12)CC(c1ccccn1)S3=O` (stereo not drawn), 148 °C; with `O=[N+]([O-])c1ccc2nc3c(nc2c1)CCCC3`, 175 to 178 °C. In turn, `Cc1cc2c(c(C)c1NC(=O)CC(C)(C)C)C(c1ccc(C(C)C)cc1)CS2` (stereo not drawn) gave a melting point of 151 to 152 °C. `CCSC(C)(C)C(=O)CC(=O)Nc1cc(NC(=O)CCCOc2ccc(C(C)(C)CC)cc2C(C)(C)CC)ccc1Cl` yielded a melting point of 121 to 122 °C.

For `COc1ccc(C(Cc2ccncc2)c2ccc(CO)cc2)cc1OC1CCCC1` (stereo not drawn), the melting point fell in the range of 179 to 182 °C.

On to `CCCCOc1cc(C)c(N=Nc2ccccc2)c(C)c1`, for which the melting point fell in the range of 47 to 47.5 °C. As for `CCOc1ccc(C(=O)CN2CCOCC2)cc1-c1nc2c(C)cccc2c(=O)[nH]1`, the figure is 172 to 173 °C; as for `CC1N=NC2=CN=C(c3ccccc3Cl)c3cc(C(=O)Cl)ccc3N21` (stereo not drawn), 295 to 297 °C. With `CCn1cc(C(=O)O)c(=O)c2cc(F)c(N3CCNC(c4cc[nH]c4)C3)cc21` (stereo not drawn) the figure was 220 °C. `COc1ccc(CC(=O)N2C=CC(C)(C)C=C2)cc1OC` had a melting point of 86 to 89.5 °C. `NC(=O)C1CCc2cc(S(=O)(=O)Nc3ccc(-n4nnn(CCCC5CCCC5)c4=O)cc3)ccc2O1` (stereo not drawn) gave a melting point of 202 to 205 °C. With `Cc1nc2nc(Cl)c(Cl)nc2s1` the figure was 58 to 60 °C; with `O=C1Cc2c(cccc2OCCNCc2ccccc2)N1`, 145 to 146 °C; with `COC(=O)c1ccccc1S(=O)(=O)NC(=O)Nc1nc(N)cc(Cl)n1`, 170 to 172 °C.

With `CC(C)(C)CC(=O)Nc1ccc2ncnc(N)c2c1`, the melting point was in the range of 273 to 274 °C. As for `CCNC1=NS(=O)(=O)c2cc(Cl)sc2N1`, the melting point was 274 to 275 °C. As for `Clc1ccc(-c2cn([C@H]3CN4CCC3CC4)nn2)cc1`, the figure is 144 °C. With `Cc1nn(C)c2ccc(C(=O)O)c(C3=NC(C)(C(C)C)C(=O)N3)c12` (stereo not drawn) the figure was 156 to 166 °C; with `O=[N+]([O-])c1ccc(C(O)c2ncco2)c(Cl)c1` (stereo not drawn), 158 to 160 °C; with `COc1ccc2cc3c(=O)c(C#N)c[nH]c3cc2c1`, above 265 °C. With `O=S1(=O)C[C@H](O)[C@H](O)CS1` the figure was 131 to 132 °C. `C=CCNc1nc(NC(=O)Nc2ccccc2OC)nc(N(CCC(=O)O)Cc2ccc(Cl)c(Cl)c2)n1` displayed a melting point of 201 °C. As for `C#CCOc1cc(-n2c(C#N)c(C#N)n(CCC)c2=O)c(F)cc1Cl`, the figure is 164 to 166 °C. With `O=C(OCC1(c2ccccc2)CC1)c1cccc2nnsc12` the figure was 55 to 57 °C. As for `Cc1c(NC(=O)c2ccc(OCC3CCCO3)cc2)ccc2cc(CNCC(C)(C)O)cnc12` (stereo not drawn), the figure is 138 °C; as for `Cc1noc(-c2cccc(CN3CCN(c4ccc(N)cc4)CC3)c2)n1`, 106 to 108 °C. `O=C(c1cc2c(cc1F)OC(c1ccccc1Cl)(c1ccccc1Cl)O2)N1CCOCC1` yielded a melting point of 98 °C.

Turning to `CNC(=O)C(NC(=O)c1ccc(F)cc1C(F)(F)F)C(O)C(F)(F)F` (stereo not drawn), the melting point was 212 °C. As for `CCCCCCCCCCCCCCCCCCOc1ccc(C(=O)O)c(OCCCOc2ccc(O)cc2)c1`, the figure is 97 to 100 °C. With `O=C(Nc1ccccc1S(=O)(=O)C1CCCC1)N[C@@H](Cc1ccc(NC(=O)c2c(Cl)cncc2Cl)cc1)C(=O)O` the figure was 233 °C.

In the case of `O=Cc1c2ccccc2c(SCCO)c2ccccc12`, the melting point fell in the range of 103 to 104 °C.

On to `O=c1ccc(-c2c(-c3ccccc3)nn3ccccc23)nn1-c1ccccc1`, for which the melting point was 170 °C. With `CN1CC2=C(n3cnc(C#Cc4ccccc4)c3C1)S(=O)C=C2` (stereo not drawn) the figure was 143 to 144 °C; with `C=CCC(CC)(CC=C)C(=O)O[C@H]1C[C@H](O)C=C2C=C[C@H](C)[C@H](CC[C@@H]3C[C@@H](O)CC(=O)O3)[C@H]21`, 99 to 100 °C.

For the compound `Nc1ccc(-c2ccncc2)cc1[N+](=O)[O-]`, the melting point was in the range of 234 to 238 °C. As for `O=C(O)c1ccc(Oc2ccccc2Oc2ccc(C(=O)O)cc2)cc1`, the figure is 255 to 257 °C. As for `COc1cccc(OC)c1C#CC(F)(F)F`, the melting point was 110 to 111 °C.

As a reminder, the melting point is the temperature of the solid-liquid transition.
